Laboratory results published in paper PMC9024338, “Bruceine H Mediates EGFR-TKI Drug Persistence in NSCLC by Notch3-Dependent β-Catenin Activating FOXO3a Signaling” (Frontiers in Oncology, 2022).
Where “and” joins values, the source holds several entries; their conditions need not be identical. Identical values can stand only once. Like-named read-outs stand apart in the source and are kept apart here.

What was measured:
[1] = Preliminary pharmacokinetics in SD rats; type: in vivo; set-up: AUC (0-t), individual rats No1-No3 / AUC (0-∞), individual rats No1-No3: concentration or dose not given beside the values
Method: We administered BH by gavage and intravenous administration to SD rats (male, 200–220 g, n = 6) after they had fasted for 12 h. For oral gavage, the BH was dissolved in DMSO/0.5% CMC-Na (5/95, v/v/), and for intravenous administration, it was dissolved in DMSO/0.9% NaCl (5/95, v/v/), and then the blood samples were collected at intervals to determine the pharmacokinetic (PK) profiles of SD rats.

PC-9 cells = assay: Apoptosis by flow cytometry (Annexin V-FITC/PI), PC-9; type: cell-based, human; details: PC-9, 48 h, various concentrations, relative to control
Method: After being digested with trypsin without EDTA, the cells were washed gently with culture medium and twice with cold PBS. The pellet was resuspended in 400 μl of 1× binding buffer, the resuspended cells were transferred to flow tubes, then Annexin V-FITC (5 μl) and propidium iodide (10 μl) were added, and the mixture was incubated for 15 min at room temperature in the dark. The percentage of apoptotic cells was determined by flow cytometry (Backman, CA, USA) and FlowJo V10 software.

CC1=CC(=O)[C@@H](O)[C@]2(C)[C@H]3[C@@H](O)[C@H](O)[C@@]4(CO)OC[C@@]35[C@@H](C[C@@H]12)OC(=O)[C@H](O)[C@]54O [BH, Bruceine H]
concentration at 6 h ([1]; male, SD, rat, plasma, po, 10 mg/kg, p.o. 10 mg/kg, 6 h, read-out: Concentration of BH in rat plasma, individual rats No1-No3): 97.6 ng/mL
concentration at 8 h ([1]; male, SD, rat, plasma, po, 10 mg/kg, p.o. 10 mg/kg, 8 h, read-out: Concentration of BH in rat plasma, Mean): 42.3 ng/mL
concentration at 8 h ([1]; male, SD, rat, plasma, po, 10 mg/kg, p.o. 10 mg/kg, 8 h, read-out: Concentration of BH in rat plasma, individual rats No1-No3): 50.4 ng/mL
concentration at 12 h ([1]; male, SD, rat, plasma, po, 10 mg/kg, p.o. 10 mg/kg, 12 h, read-out: Concentration of BH in rat plasma, Mean): 16.4 ng/mL
concentration at 24 h ([1]; male, SD, rat, plasma, po, 10 mg/kg, p.o. 10 mg/kg, 24 h, read-out: Concentration of BH in rat plasma, Mean): 3.33 ng/mL
AUC(0-t) ([1]; male, SD, rat, plasma, po, 10 mg/kg, rat, p.o., read-out: AUC (0-t), Mean): 961 ng·h/mL
AUC(0-t) ([1]; male, SD, rat, plasma, po, 10 mg/kg, rat, p.o., read-out: AUC (0-t), individual rats No1-No3): 1070 ng·h/mL
AUC(0-inf) ([1]; male, SD, rat, plasma, po, 10 mg/kg, rat, p.o., read-out: AUC (0-∞), Mean): 976 ng·h/mL
concentration at 24 h ([1]; male, SD, rat, plasma, po, 10 mg/kg, rat, p.o., read-out: C_last, Mean): 2 ng/mL
Cmax ([1]; male, SD, rat, plasma, po, 10 mg/kg, rat, p.o., read-out: Cmax, Mean): 147 ng/mL
Cmax ([1]; male, SD, rat, plasma, po, 10 mg/kg, rat, p.o., read-out: Cmax, individual rats No2, No3): 145 ng/mL
MRT inf ([1]; male, SD, rat, plasma, po, 10 mg/kg, rat, p.o., read-out: MRT (0-∞), Mean): 5.92 h
MRT inf ([1]; male, SD, rat, plasma, po, 10 mg/kg, rat, p.o., read-out: MRT (0-∞), individual rats No1-No3): 5.5 h
half-life ([1]; male, SD, rat, plasma, po, 10 mg/kg, rat, p.o., read-out: t1/2z, Mean (converted)): 3.35 h
k el ([1]; male, SD, rat, plasma, po, 10 mg/kg, rat, p.o., read-out: λz, Mean (converted)): 6.89e-05 s⁻¹
AUC(0-inf) ([1]; male, Sprague-Dawley (SD), rat, plasma, iv, 2 mg/kg, rat, i.v., read-out: AUC (0-∞), Mean): 1050 ng·h/mL
MRT last ([1]; male, Sprague-Dawley (SD), rat, plasma, iv, 2 mg/kg, rat, i.v., read-out: MRT (0-t), Mean): 5.01 h
MRT last ([1]; male, Sprague-Dawley (SD), rat, plasma, iv, 2 mg/kg, rat, i.v., read-out: MRT (0-t), individual rats No1-No3): 4.99 h
AUC(0-inf) ([1]; male, Sprague-Dawley (SD), rat, plasma, po, 10 mg/kg, rat, p.o., read-out: AUC (0-∞), individual rats No1-No3): 1070 ng·h/mL
MRT last ([1]; male, Sprague-Dawley (SD), rat, plasma, po, 10 mg/kg, rat, p.o., read-out: MRT (0-t), Mean): 5.54 h
MRT last ([1]; male, Sprague-Dawley (SD), rat, plasma, po, 10 mg/kg, rat, p.o., read-out: MRT (0-t), individual rats No1-No3): 5.47 h
bioavailability ([1]; male, rat, plasma, SD rats, 10 mg/kg po vs 2 mg/kg iv, read-out: Oral bioavailability (F)): 20.4%
Tmax ([1]; male, rat, plasma, SD rats, 10 mg/kg po, read-out: Time of maximum concentration (T max)): 1 h
Concentration of BH in rat plasma, individual rats No1-No3 ([1]; p.o. 10 mg/kg, 0.25 h, 10 mg/kg): 10.5 ng/mL and 11.3 ng/mL
Concentration of BH in rat plasma, individual rats No1-No3 ([1]; p.o. 10 mg/kg, 0.5 h, 10 mg/kg): 55.4 ng/mL and 50.6 ng/mL
Concentration of BH in rat plasma, individual rats No1-No3 ([1]; p.o. 10 mg/kg, 0.75 h, 10 mg/kg): 98.5 ng/mL and 104.2 ng/mL
Concentration of BH in rat plasma, individual rats No1-No3 ([1]; p.o. 10 mg/kg, 1 h, 10 mg/kg): 145.3 ng/mL and 140.1 ng/mL
Concentration of BH in rat plasma, individual rats No1-No3 ([1]; p.o. 10 mg/kg, 2 h, 10 mg/kg): 117.7 ng/mL and 120.4 ng/mL
Concentration of BH in rat plasma, individual rats No1-No3 ([1]; p.o. 10 mg/kg, 4 h, 10 mg/kg): 99.4 ng/mL and 89.6 ng/mL
Concentration of BH in rat plasma, individual rats No1-No3 ([1]; p.o. 10 mg/kg, 6 h, 10 mg/kg): 75.3 ng/mL and 68.5 ng/mL
Concentration of BH in rat plasma, individual rats No1-No3 ([1]; p.o. 10 mg/kg, 8 h, 10 mg/kg): 35.4 ng/mL and 41.2 ng/mL
Concentration of BH in rat plasma, individual rats No1-No3 ([1]; p.o. 10 mg/kg, 12 h, 10 mg/kg): 16.8 ng/mL and 10.4 ng/mL and 22.1 ng/mL
Concentration of BH in rat plasma, individual rats No1-No3 ([1]; p.o. 10 mg/kg, 24 h, 10 mg/kg): 2.8 ng/mL and 1.8 ng/mL and 5.4 ng/mL
AUC (0-t), individual rats No1-No3 ([1]; rat, i.v.): 883.761 ng·h/mL and 981.633 ng·h/mL
AUC (0-∞), individual rats No1-No3 ([1]; rat, i.v.): 977.839 ng·h/mL and 1158.837 ng·h/mL
AUMC (0-t), Mean ([1]; rat, i.v.): 4747.166 h*h*ng/mL
AUMC (0-t), individual rats No1-No3 ([1]; rat, i.v.): 4816.632 h*h*ng/mL and 3928.001 h*h*ng/mL and 5496.865 h*h*ng/mL
AUMC (0-∞), Mean ([1]; rat, i.v.): 9005.111 h*h*ng/mL
AUMC (0-∞), individual rats No1-No3 ([1]; rat, i.v.): 6587.862 h*h*ng/mL and 7623.703 h*h*ng/mL and 12803.767 h*h*ng/mL
C0, Mean ([1]; rat, i.v.): 516.231 ng/mL
C0, individual rats No1-No3 ([1]; rat, i.v.): 543.621 ng/mL and 515.672 ng/mL and 489.401 ng/mL
CLz, individual rats No1-No3 ([1]; rat, i.v.): 34.08878 mL/min/kg and 28.76447 mL/min/kg
C_last, individual rats No1-No3 ([1]; rat, i.v.): 6.155 ng/mL and 10.282 ng/mL
MRT (0-t), individual rats No1-No3 ([1]; rat, i.v.): 4.445 h and 5.6 h
MRT (0-∞), individual rats No1-No3 ([1]; rat, i.v.): 7.796 h and 11.049 h
R_AUC (t/∞), Mean ([1]; rat, i.v.): 89.967%
R_AUC (t/∞), individual rats No1-No3 ([1]; rat, i.v.): 94.8% and 90.4% and 84.7%
VRT (0-t), Mean ([1]; rat, i.v.): 33.805 h^2
VRT (0-t), individual rats No1-No3 ([1]; rat, i.v.): 30.325 h^2 and 31.091 h^2 and 40 h^2
VRT (0-∞), Mean ([1]; rat, i.v.): 157.741 h^2
VRT (0-∞), individual rats No1-No3 ([1]; rat, i.v.): 73.322 h^2 and 156.114 h^2 and 243.787 h^2
Vz, individual rats No1-No3 ([1]; rat, i.v.): 31.260167 L/kg and 29.744277 L/kg
t1/2z, individual rats No1-No3 ([1]; rat, i.v.): 10.592 h and 11.943 h
λz, individual rats No1-No3 ([1]; rat, i.v.): 0.065 h⁻¹ and 0.058 h⁻¹
AUC (0-t), individual rats No1-No3 ([1]; rat, p.o.): 858.063 ng·h/mL and 958.688 ng·h/mL
AUC (0-∞), individual rats No1-No3 ([1]; rat, p.o.): 858.682 ng·h/mL and 1001.201 ng·h/mL
AUMC (0-t), Mean ([1]; rat, p.o.): 5336.656 h*h*ng/mL
AUMC (0-t), individual rats No1-No3 ([1]; rat, p.o.): 5831.875 h*h*ng/mL and 4275.963 h*h*ng/mL and 5902.131 h*h*ng/mL
AUMC (0-∞), Mean ([1]; rat, p.o.): 5811.834 h*h*ng/mL
AUMC (0-∞), individual rats No1-No3 ([1]; rat, p.o.): 5879.636 h*h*ng/mL and 4292.741 h*h*ng/mL and 7263.126 h*h*ng/mL
CLz, individual rat No1 ([1]; rat, p.o.): 155.9614 mL/min/kg
C_last, individual rats No1-No3 ([1]; rat, p.o.): 0.506 ng/mL and 0.202 ng/mL and 5.305 ng/mL
Cmax, individual rats No2, No3 ([1]; rat, p.o.): 140.1 ng/mL
MRT (0-t), individual rats No1-No3 ([1]; rat, p.o.): 4.983 h and 6.156 h
MRT (0-∞), individual rats No1-No3 ([1]; rat, p.o.): 4.999 h and 7.254 h
R_AUC (t/∞), Mean ([1]; rat, p.o.): 98.5%
R_AUC (t/∞), individual rats No1-No3 ([1]; rat, p.o.): 99.8% and 99.9% and 95.8%
VRT (0-t), Mean ([1]; rat, p.o.): 19.306 h^2
VRT (0-t), individual rats No1-No3 ([1]; rat, p.o.): 17.271 h^2 and 15.275 h^2 and 25.371 h^2
VRT (0-∞), Mean ([1]; rat, p.o.): 29.291 h^2
VRT (0-∞), individual rats No1-No3 ([1]; rat, p.o.): 18.047 h^2 and 15.623 h^2 and 54.204 h^2
Vz, individual rat No1 ([1]; rat, p.o.): 32.202018 L/kg
t1/2z, individual rats No1-No3 ([1]; rat, p.o.): 2.385 h and 2.122 h and 5.553 h
λz, individual rats No1-No3 ([1]; rat, p.o.): 0.291 h⁻¹ and 0.327 h⁻¹ and 0.125 h⁻¹
late apoptotic rate (PC-9 cells): increased
